From PMC3326523, “Histone Recognition and Large-Scale Structural Analysis of the Human Bromodomain Family” (Cell, 2012) come the findings set out here.

Like-named read-outs stand apart in the source and are kept apart here. Where no end group is shown, it is not given here.

Test [1] addresses T1, CREBBP (Homo sapiens, UniProt Q92793).
T1 construct: His6 tag with TEV cleavage site (N, cleaved yes); made in house; host or cells: E. coli BL21(DE3)-R3
The test is described as follows: Isothermal titration calorimetry (ITC) of histone peptides. Format: binding. On the technique in general: Isothermal titration calorimetry measures the heat released or taken up as one component is titrated into another.

The subject of test [2] is 33 representative BRDs. The test is described as follows: SPOT peptide array of singly acetylated histone peptides. It counts as binding, human. The conditions noted are these: His6-tagged BRDs 1 μM; in words. As to the method:
Peptides were synthesized on cellulose membranes using a MultiPep SPOT peptide arrayer (Intavis). His6-tagged BRDs were added to a final concentration of 1 μM, and blots were developed using an ECL kit (Thermo Scientific) following the manufacturer's protocol.
Three different types of SPOT membrane were utilized in order to probe preferences of BRD recognition sites: the first array contained peptides from all four core histones (H2A, H2B, H3 and H4) covering all possible lysine acetylation sites, with peptide sizes ranging from 10 to 14 amino acids. […]
Peptides for the first two arrays were synthesized directly on cellulose membranes (Intavis) using a MultiPep SPOT peptide arrayer (Intavis) and commercially available standard (Intavis) or modified (Bachem) L-amino acid precursors as previously described ([Nady et al., 2008]). The quality of the synthesized array was evaluated as follows: i) immune reactive peptides were identified by incubation of the membrane with an anti-His antibody in the absence of any His6-tagged BRD. […]
Each membrane was washed 3 times in PBST, blocked for 1 hr with 10% milk in PBST, and washed again 3 × 5 min with PBST. […] Chem-illuminescence was detected with an Image reader (Fujifilm LAS-4000 ver.2.0) with an incremental exposure time of 5 min for a total of 80 min. […]

T1 sequence (Q92793 with tags, fused parts or gaps): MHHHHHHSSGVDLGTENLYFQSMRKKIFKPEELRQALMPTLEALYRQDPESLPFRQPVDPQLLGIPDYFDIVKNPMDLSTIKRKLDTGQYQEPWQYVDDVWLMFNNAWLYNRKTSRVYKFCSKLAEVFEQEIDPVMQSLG

What is called Kd is the free concentration of one partner at which half of the binding sites on the other are occupied at equilibrium, for simple one-to-one binding. In test [1], `CC(=O)NCCCC[C@H](NC(=O)CNC(=O)CNC(=O)[C@@H](NC(=O)[C@H](CO)NC(=O)[C@@H](N)CCCCN)[C@@H](C)O)C(=O)N[C@@H](C)C(=O)N1CCC[C@H]1C(=O)N[C@@H](CCCNC(=N)N)C(=O)N[C@@H](CCCCN)C(=O)N[C@@H](CCC(N)=O)C(=O)N[C@@H](Cc1ccc(O)cc1)C(=O)O` [H3K14ac] displayed a Kd of 733 µM. As to `CC(=O)NCCCC[C@H](NC(=O)CNC(=O)CNC(=O)[C@@H](NC(=O)[C@H](COP(=O)(O)O)NC(=O)[C@@H](N)CCCCN)[C@@H](C)O)C(=O)N[C@@H](C)C(=O)N1CCC[C@H]1C(=O)N[C@@H](CCCNC(=N)N)C(=O)N[C@@H](CCCCNC(C)=O)C(=O)N[C@@H](CCC(N)=O)C(=O)N[C@@H](Cc1ccc(O)cc1)C(=O)O` [H3pS10K14acK18ac], the Kd in test [1] (ITC, 10 or 15°C, 50 mM HEPES pH 7.5, 150 mM NaCl, read-out: KD of CREBBP) turned out to be 131 µM. Take “H2AK36: promiscuous H2AK36-containing array peptide (LLRK(Ac)GNYSERVGA)”: in test [2], the “interaction with BRDs in SPOT array of singly acetylated peptides” value is on record as “interacted with most BRDs”. On the same count and under the same terms, the result for “H2BK85: promiscuous H2BK85-containing array peptide (AHYNK(Ac)RSTITSRE)” reads “interacted with most BRDs”.
